18 compounds from ChEMBL document CHEMBL1909046, “DrugMatrix in vitro pharmacology data” can be followed below.

The target of data set [1] is Beta-3 adrenergic receptor (Homo sapiens, UniProt P13945). As to the kind of experiment: DRUGMATRIX: Adrenergic beta3 radioligand binding (ligand: [125I] Cyanopindolol). Type of data set: cell membranes, HEK293, Membrane. As to conditions: Not Active = under 50% inhibition at 10 µM.
The next data set concerns the target T1, Calcitonin receptor (Homo sapiens, UniProt P30988). Also: in other assays of this panel Not Active means under 50% inhibition at 10 µM.
T1 sequence (P30988 whole entry): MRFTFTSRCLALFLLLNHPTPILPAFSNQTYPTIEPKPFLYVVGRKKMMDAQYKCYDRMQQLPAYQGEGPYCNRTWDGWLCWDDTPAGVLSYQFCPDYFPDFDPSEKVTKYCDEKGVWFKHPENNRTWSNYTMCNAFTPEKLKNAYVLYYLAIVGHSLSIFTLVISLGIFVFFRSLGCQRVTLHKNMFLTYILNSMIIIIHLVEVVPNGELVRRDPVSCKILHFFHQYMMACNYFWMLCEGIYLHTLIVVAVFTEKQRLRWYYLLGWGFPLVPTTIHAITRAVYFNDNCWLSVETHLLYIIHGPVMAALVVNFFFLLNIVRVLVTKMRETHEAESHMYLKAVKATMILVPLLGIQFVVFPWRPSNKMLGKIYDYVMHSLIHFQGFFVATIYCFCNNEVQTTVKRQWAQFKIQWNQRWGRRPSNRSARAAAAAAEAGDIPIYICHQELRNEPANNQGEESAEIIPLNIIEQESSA
It is filed as cell membranes, Membrane. As to conditions: t47d.

A further data set concerns the target T2, Thromboxane-A synthase (Homo sapiens, UniProt P24557).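 Also: enzyme inhibition assay with PGH2 supplied as substrate; in other assays of this panel Not Active means under 50% inhibition at 10 µM.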
T2 sequence (P24557 whole entry): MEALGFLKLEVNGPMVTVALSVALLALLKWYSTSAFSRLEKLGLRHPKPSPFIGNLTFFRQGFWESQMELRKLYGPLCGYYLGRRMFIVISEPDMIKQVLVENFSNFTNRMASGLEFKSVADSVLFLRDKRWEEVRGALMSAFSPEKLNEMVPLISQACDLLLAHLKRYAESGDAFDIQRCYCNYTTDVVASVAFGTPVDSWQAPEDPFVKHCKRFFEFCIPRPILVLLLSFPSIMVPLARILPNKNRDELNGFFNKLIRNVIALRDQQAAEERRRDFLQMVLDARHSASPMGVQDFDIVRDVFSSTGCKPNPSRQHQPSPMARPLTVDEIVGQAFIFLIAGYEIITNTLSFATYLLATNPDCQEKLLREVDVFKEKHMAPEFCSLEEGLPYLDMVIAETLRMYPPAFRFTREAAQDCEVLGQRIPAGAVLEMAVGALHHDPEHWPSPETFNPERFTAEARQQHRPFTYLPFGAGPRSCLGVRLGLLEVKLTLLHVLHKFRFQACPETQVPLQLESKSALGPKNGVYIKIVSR
Put plainly: biochemical. Type of data set: tissue-based, Platelet.

A further data set deals with Nitric oxide synthase 1 (Rattus norvegicus, UniProt P29476). Type of data set: tissue-based, Cerebellum.
Nitric oxide synthase 1, sequence (P29476 whole entry): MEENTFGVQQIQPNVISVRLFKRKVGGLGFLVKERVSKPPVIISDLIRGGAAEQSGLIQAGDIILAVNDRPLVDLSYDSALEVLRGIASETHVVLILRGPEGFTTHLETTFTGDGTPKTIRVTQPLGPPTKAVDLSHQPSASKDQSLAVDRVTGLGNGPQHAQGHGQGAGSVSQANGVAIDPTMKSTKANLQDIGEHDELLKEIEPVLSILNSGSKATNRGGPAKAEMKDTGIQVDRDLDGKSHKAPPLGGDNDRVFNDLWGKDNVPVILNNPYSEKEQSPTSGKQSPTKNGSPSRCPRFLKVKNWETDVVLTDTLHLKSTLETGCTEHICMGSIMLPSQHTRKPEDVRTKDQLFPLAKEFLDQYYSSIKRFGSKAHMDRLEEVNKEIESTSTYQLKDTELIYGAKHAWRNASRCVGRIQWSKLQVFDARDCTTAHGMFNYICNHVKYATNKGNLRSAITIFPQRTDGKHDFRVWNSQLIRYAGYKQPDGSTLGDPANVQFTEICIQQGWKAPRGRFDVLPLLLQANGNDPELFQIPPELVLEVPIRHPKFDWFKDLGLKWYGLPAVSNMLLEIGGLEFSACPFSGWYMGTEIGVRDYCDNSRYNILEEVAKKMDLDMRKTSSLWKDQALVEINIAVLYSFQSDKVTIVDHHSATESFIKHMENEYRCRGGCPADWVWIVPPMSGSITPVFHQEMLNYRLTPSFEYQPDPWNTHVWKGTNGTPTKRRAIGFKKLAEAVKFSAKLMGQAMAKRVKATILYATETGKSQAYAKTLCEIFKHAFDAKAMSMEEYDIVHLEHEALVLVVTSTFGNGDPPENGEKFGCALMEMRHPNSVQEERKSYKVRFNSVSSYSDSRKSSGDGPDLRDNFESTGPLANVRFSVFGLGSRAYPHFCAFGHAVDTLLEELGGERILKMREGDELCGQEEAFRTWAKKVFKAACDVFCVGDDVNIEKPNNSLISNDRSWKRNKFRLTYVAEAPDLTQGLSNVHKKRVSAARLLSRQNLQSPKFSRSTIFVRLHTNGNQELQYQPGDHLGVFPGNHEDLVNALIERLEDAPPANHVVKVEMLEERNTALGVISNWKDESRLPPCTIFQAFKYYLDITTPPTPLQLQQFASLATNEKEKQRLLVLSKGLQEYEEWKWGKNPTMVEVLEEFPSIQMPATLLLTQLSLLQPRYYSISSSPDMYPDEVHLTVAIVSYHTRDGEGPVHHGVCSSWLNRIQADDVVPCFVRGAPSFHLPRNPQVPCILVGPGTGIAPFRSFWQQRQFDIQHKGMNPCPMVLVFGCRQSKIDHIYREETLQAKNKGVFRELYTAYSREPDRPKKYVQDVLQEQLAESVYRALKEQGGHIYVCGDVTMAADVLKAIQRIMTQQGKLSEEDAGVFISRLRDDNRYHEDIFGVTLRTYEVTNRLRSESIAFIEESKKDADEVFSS
The target in a further data set is T3, Progesterone receptor (Bos taurus, UniProt Q690N0).
T3 sequence (Q690N0 whole entry): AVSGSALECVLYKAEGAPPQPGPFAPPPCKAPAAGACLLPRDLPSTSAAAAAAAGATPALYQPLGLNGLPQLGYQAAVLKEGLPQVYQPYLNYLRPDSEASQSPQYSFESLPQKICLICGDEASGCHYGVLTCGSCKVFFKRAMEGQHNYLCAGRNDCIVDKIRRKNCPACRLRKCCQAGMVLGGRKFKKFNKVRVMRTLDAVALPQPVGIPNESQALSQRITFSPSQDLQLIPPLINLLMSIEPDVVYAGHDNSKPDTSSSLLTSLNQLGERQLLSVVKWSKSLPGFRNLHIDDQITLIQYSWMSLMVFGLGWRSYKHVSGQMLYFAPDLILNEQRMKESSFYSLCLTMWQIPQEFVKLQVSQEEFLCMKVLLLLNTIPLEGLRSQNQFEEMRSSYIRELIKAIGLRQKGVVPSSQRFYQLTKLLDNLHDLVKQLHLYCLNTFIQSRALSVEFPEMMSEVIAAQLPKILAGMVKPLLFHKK
Put plainly: DRUGMATRIX: Progesterone radioligand binding (ligand: [3H] R-5020). Type of data set: tissue-based, Uterus. As to conditions: Not Active = under 50% inhibition at 10 µM.

A further data set concerns the target T4, Caspase-1 (Homo sapiens, UniProt P29466).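 Also: Caspase-1 enzyme inhibition assay with a peptide substrate; in other assays of this panel Not Active means under 50% inhibition at 10 µM.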
T4 sequence (P29466 whole entry): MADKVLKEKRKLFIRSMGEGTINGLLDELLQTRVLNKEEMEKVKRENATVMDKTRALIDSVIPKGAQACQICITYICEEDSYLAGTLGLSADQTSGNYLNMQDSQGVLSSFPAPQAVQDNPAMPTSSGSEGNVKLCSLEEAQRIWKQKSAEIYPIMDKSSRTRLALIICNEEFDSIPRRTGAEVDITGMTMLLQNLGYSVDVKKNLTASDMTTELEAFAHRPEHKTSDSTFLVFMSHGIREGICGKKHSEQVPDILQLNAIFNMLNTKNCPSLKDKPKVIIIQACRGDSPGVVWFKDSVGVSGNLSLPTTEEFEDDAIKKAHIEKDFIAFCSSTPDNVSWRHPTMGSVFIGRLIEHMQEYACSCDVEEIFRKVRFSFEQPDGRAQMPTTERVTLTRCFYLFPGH
Also on record: species or system Escherichia coli.

Data set [2] has as its target Voltage-gated inwardly rectifying potassium channel KCNH2 (Homo sapiens, UniProt Q12809). As to conditions: hek293. Also: in other assays of this panel Not Active means under 50% inhibition at 10 µM.

Voltage-gated inwardly rectifying potassium channel KCNH2, sequence (Q12809 whole entry): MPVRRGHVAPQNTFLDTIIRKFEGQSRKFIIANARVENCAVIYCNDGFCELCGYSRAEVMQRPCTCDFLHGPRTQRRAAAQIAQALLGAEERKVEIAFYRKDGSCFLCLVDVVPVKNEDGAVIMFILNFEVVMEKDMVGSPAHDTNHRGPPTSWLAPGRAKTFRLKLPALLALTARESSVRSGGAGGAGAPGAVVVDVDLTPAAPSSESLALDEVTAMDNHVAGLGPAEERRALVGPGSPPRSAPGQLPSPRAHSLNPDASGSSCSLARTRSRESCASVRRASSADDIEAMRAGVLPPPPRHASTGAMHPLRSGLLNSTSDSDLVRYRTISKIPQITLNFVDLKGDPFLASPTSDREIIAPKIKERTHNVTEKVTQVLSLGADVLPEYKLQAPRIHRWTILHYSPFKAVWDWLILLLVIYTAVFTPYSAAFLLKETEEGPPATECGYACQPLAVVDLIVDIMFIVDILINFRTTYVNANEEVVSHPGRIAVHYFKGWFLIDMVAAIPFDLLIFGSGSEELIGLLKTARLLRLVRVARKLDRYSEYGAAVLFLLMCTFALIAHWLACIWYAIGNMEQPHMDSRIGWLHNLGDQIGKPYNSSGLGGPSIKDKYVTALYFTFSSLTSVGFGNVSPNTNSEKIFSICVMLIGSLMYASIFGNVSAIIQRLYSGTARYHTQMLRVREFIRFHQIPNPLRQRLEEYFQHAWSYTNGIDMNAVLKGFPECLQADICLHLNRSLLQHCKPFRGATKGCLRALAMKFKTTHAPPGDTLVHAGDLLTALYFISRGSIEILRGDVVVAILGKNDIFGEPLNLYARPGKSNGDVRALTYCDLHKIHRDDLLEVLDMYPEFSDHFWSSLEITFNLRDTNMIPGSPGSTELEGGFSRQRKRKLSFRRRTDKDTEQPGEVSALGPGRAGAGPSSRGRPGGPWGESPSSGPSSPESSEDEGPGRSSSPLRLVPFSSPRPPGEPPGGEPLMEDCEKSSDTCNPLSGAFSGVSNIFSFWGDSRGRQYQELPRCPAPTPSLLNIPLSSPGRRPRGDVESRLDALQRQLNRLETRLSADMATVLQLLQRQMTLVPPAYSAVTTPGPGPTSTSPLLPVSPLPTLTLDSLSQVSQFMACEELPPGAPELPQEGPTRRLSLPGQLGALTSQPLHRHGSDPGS
Beta-3 adrenergic receptor, sequence (P13945 whole entry): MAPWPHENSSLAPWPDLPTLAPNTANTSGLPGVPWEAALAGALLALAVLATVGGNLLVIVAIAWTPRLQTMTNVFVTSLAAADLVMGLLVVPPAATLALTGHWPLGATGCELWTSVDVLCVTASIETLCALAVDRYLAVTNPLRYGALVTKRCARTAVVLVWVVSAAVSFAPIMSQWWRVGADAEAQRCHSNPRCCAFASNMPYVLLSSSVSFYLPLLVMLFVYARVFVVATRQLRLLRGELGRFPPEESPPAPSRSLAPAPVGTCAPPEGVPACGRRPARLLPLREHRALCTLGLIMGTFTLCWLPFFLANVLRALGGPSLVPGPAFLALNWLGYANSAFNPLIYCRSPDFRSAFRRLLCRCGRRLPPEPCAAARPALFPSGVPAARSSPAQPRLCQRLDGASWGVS

In the case of `CCCCC(=O)N(Cc1ccc(-c2ccccc2-c2nnn[nH]2)cc1)[C@H](C(=O)O)C(C)C`, the IC50 entry (in data set [1] (hek293); at Calcitonin receptor; at Thromboxane-A synthase (platelet); against Nitric oxide synthase 1; at Progesterone receptor; at Caspase-1) was “Not Active” in each case. Further, the IC50 entry in data set [2] is “Not Active”. Moreover, in data set [2], the Ki entry is “Not Active”.

`O=C(O)COc1ccc(C(=O)c2cccs2)c(Cl)c1Cl`: the IC50 result (in data set [1] (hek293); on Calcitonin receptor; against Thromboxane-A synthase (platelet); against Nitric oxide synthase 1; on Progesterone receptor; against Caspase-1) was “Not Active” in each case. Besides, the IC50 result in data set [2] is “Not Active”. Besides, the Ki result in data set [2] was “Not Active”.

As for `CN1[C@@H]2CC[C@H]1C[C@@H](OC(c1ccccc1)c1ccccc1)C2` [BENZTROPINE], the concentration for half-maximal inhibition (IC50) entry (in data set [1] (hek293); on Calcitonin receptor; against Thromboxane-A synthase (platelet); at Nitric oxide synthase 1; at Progesterone receptor; against Caspase-1) was “Not Active” in each case. For the same compound, the IC50 result in data set [2] is recorded as “Not Active”. Moreover, the Ki result in data set [2] was “Not Active”.

Turning to `C[C@@](Cc1ccc(O)c(O)c1)(NN)C(=O)O.O` [CARBIDOPA], the half-maximal inhibitory concentration (IC50) result (in data set [1] (hek293); at Calcitonin receptor; against Thromboxane-A synthase (platelet); at Nitric oxide synthase 1; on Progesterone receptor; on Caspase-1) was “Not Active” throughout. Further, in data set [2], the half-maximal inhibitory concentration (IC50) entry is “Not Active”. In addition, the Ki entry in data set [2] is recorded as “Not Active”.

As to `CN1CCN(C2=Nc3cc(Cl)ccc3Nc3ccccc32)CC1` [CLOZAPINE], the IC50 result (in data set [1] (hek293); on Calcitonin receptor; on Thromboxane-A synthase (platelet); on Nitric oxide synthase 1; on Progesterone receptor; against Caspase-1) was “Not Active” each time.

As to `CC(C)NC[C@@H](O)COc1cccc2ccccc12` [DEXPROPRANOLOL], the IC50 result (in data set [1] (hek293); on Calcitonin receptor; against Thromboxane-A synthase (platelet); at Nitric oxide synthase 1; at Progesterone receptor; against Caspase-1) was “Not Active” in each case. Besides, the 50% inhibitory concentration (IC50) result in data set [2] was “Not Active”. Moreover, in data set [2], the Ki entry is reported as “Not Active”.

As for `CC(C)NC[C@H](O)COc1cccc2ccccc12` [LEVOPROPRANOLOL], the IC50 result (on Calcitonin receptor; against Thromboxane-A synthase (platelet); against Nitric oxide synthase 1; at Progesterone receptor; against Caspase-1; in data set [2]) was “Not Active” throughout. Also, the Ki result in data set [2] is recorded as “Not Active”.

Regarding `O=C(O)CCCCC1CCSS1` (stereo not drawn) [LIPOIC ACID, ALPHA], the half-maximal inhibitory concentration (IC50) result (in data set [1] (hek293); at Calcitonin receptor; at Thromboxane-A synthase (platelet); against Nitric oxide synthase 1; at Progesterone receptor; against Caspase-1) was “Not Active” throughout. Besides, the IC50 result in data set [2] is “Not Active”. Also, in data set [2], the Ki entry is given as “Not Active”.

Take `CN(C)C(=O)C(CCN1CCC(O)(c2ccc(Cl)cc2)CC1)(c1ccccc1)c1ccccc1` [LOPERAMIDE]: the IC50 result (at Calcitonin receptor; against Thromboxane-A synthase (platelet); on Nitric oxide synthase 1; on Progesterone receptor; at Caspase-1; in data set [2]) was “Not Active” each time. The Ki entry in data set [2] is listed as “Not Active”.

As for `Clc1ccc(COC(Cn2ccnc2)c2ccc(Cl)cc2Cl)c(Cl)c1` (centres undefined) [MICONAZOLE], the IC50 in data set [1] (read-out: IC50) was 5.48 µM; at Calcitonin receptor, “Not Active”; at Thromboxane-A synthase (read-out: IC50), 0.263 µM; on Nitric oxide synthase 1 it was “Not Active”; at Progesterone receptor (read-out: IC50), 14.9 µM; at Caspase-1, “Not Active”. The IC50 entry in data set [2] is “Not Active”. In addition, the figures for the inhibition constant Ki (in data set [1] (read-out: Ki); on Progesterone receptor (read-out: Ki); in data set [2]) were 4.11 µM, 1.94 µM and “Not Active”, respectively.

Turning to `Oc1ccc2c3c1O[C@H]1[C@@H](O)CC[C@@]4(O)[C@@H](C2)N(CC2CCC2)CC[C@]314` [NALBUPHINE], the IC50 result (in data set [1] (hek293); at Calcitonin receptor; against Thromboxane-A synthase (platelet); on Nitric oxide synthase 1; on Progesterone receptor; on Caspase-1) was “Not Active” in each case. The IC50 result in data set [2] is “Not Active”. The Ki result in data set [2] is on record as “Not Active”.

In the case of `C[C@]12C=CC(=O)C=C1CC[C@@H]1[C@@H]2C(=O)C[C@@]2(C)[C@H]1CC[C@]2(O)C(=O)CO` [PREDNISONE], the IC50 entry (in data set [1] (hek293); at Calcitonin receptor; on Thromboxane-A synthase (platelet); against Nitric oxide synthase 1; on Progesterone receptor; against Caspase-1) was “Not Active” each time. Moreover, the IC50 result in data set [2] is given as “Not Active”. Also, the Ki result in data set [2] was “Not Active”.

For the compound `OCCOCCN1CCN(C2=Nc3ccccc3Sc3ccccc32)CC1` [QUETIAPINE], the IC50 entry (in data set [1] (hek293); on Calcitonin receptor; against Thromboxane-A synthase (platelet); against Nitric oxide synthase 1; on Progesterone receptor; against Caspase-1) was “Not Active” throughout.

Take `COC(=O)[C@H]1[C@H]2C[C@@H]3c4[nH]c5cc(OC)ccc5c4CCN3C[C@H]2C[C@@H](OC(=O)c2cc(OC)c(OC)c(OC)c2)[C@@H]1OC` [RESERPINE]: the IC50 result (in data set [1] (hek293); on Calcitonin receptor; against Thromboxane-A synthase (platelet); against Nitric oxide synthase 1; at Progesterone receptor; on Caspase-1) was “Not Active” throughout. For the same compound, the IC50 result in data set [2] is reported as “Not Active”. In addition, the Ki entry in data set [2] is “Not Active”.

`O=C(O)c1ccccc1O` [SALICYLIC ACID]: the IC50 entry (in data set [1] (hek293); on Calcitonin receptor; against Thromboxane-A synthase (platelet); against Nitric oxide synthase 1; at Progesterone receptor; against Caspase-1) was “Not Active” each time. The 50% inhibitory concentration (IC50) result in data set [2] is recorded as “Not Active”. For the same compound, the Ki entry in data set [2] is reported as “Not Active”.

Regarding `C[S+]([O-])c1ccc(-c2nc(-c3ccncc3)c(-c3ccc(F)cc3)[nH]2)cc1` (centres undefined) [SB-203580], the IC50 entry (in data set [1] (hek293); at Calcitonin receptor; against Nitric oxide synthase 1; on Progesterone receptor; on Caspase-1) was “Not Active” in each case.

With `CCCCCCCCNC(C)C(O)c1ccc(SC(C)C)cc1` (centres undefined) [SULOCTIDIL], the IC50 entry (at Calcitonin receptor; against Thromboxane-A synthase (platelet); against Nitric oxide synthase 1; at Progesterone receptor; against Caspase-1; in data set [2]) was “Not Active” each time. The Ki result in data set [2] is “Not Active”.

In the case of `CN1CCN(CCCN2c3ccccc3Sc3ccc(C(F)(F)F)cc32)CC1` [TRIFLUOPERAZINE], the IC50 entry (in data set [1] (hek293); on Calcitonin receptor; at Thromboxane-A synthase (platelet); at Nitric oxide synthase 1; at Progesterone receptor; against Caspase-1) was “Not Active” each time.
